Reference: patent publication US8658649B2, “Kinase inhibitor” (Sanofi, priority 2006, dated 2014)

System: Collagen-induced arthritis (CIA)
Test: Rat collagen induced arthritis, combination dosing with Methotrexate
Type: in vivo
Procedure: Immunization and Challenge: Female Lewis rats were immunized on day 0 and challenged on day 7 with cII from bovine nasal mixed with Freund's incomplete adjuvant at a final collagen concentration of 1.0 mg/ml. The animals were injected at the base of the tail with 400 μg of cII. Combination Dosing Regimen: Rats were dosed with the compound of Formula I (3.0 and 10 mg/kg, p.o., bi.d.) or Methotrexate (MTX, 0.1 and 0.2 mg/kg, p.o., q.d.) as monotherapy or in combinations consisting of each dose of the compound of Formula I with each dose of MTX starting on day 6 and continuing through day 21. Joint Pathology Ankle joint swelling was measured to the nearest 0.01 mm by using electronic digital calipers. Measurements were recorded 7 times throughout the study starting on day 6 and ending on day 21. Body weights were recorded on the same days. On day 21, hind paws were removed at the hairline just above the ankle and fixed in 10% neutral buffered formalin. MicroCT analysis: Ankle joints were examined using a cone-beam μCT scanner. A scout view scan was obtained first for selection of the examination volume of the specimens, followed by positioning, measurement and computational reconstruction. In ankle joints, the ratio of bone surface to bone volume, describing the complexity of bone surface in a certain volume, was analyzed. Statistical Analysis For joint swelling/inflammation, data were analyzed using Everstat v.5 software and a 2-way repeated measure ANOVA with Dunnett's post test. MicroCT data were analyzed by Everstat using a 1-way ANOVA and Newman-Keuls multiple comparison test.

CN(Cc1cnc2nc(N)nc(N)c2n1)c1ccc(C(=O)N[C@@H](CCC(=O)O)C(=O)O)cc1 [MTX, Methotrexate, reference compound]
bone erosion, MicroCT (MTX 0.1 mg/kg monotherapy): effect was not seen
bone erosion, MicroCT (MTX 0.2 mg/kg po qd monotherapy): significant decrease in bone erosion
